From patent publication US20240366577A1, “CONTROLLED LONG-TERM DRUG DELIVERY AND METHODS THEREOF” (THE JOHNS HOPKINS UNIVERSITY, priority 2021, published 2024)
Like-named read-outs stand apart in the source and are kept apart here.

Columns and labels:
[1] = tested on: foreign body and immune rejection responses to implanted biomedical devices; details: non-human primates; cited from earlier work
[2] = tested on: foreign body and immune rejection responses to implanted biomedical devices; details: rodents; cited from earlier work
[3] = in vitro release under accelerated release conditions; type: physicochemical; details: 37° C., PBS+0.3% SDS, 2.9 mg drug, 12-day time course; amorphous vs 50 μm vs 150-200 μm crystals
Description: After crystals visibly stopped precipitating or growing, the vessel was submerged in an ultrasonic water bath for 10-30 seconds to dislodge crystals from the vessel sidewall and break them into more a uniform size distributions, either smaller fines, for example 50 μm, or between 150-200 μm, as measured by brightfield and scanning electron microscopy, shown in FIGS. 2A-2B. Resultant product was then removed from the supernatant mother solution, dried, weighed, and stored for later use. On average, yielded crystal was approximately 40% of the starting powder. Furthermore, methods exist to quantify solubilized material, typically using optics to identify changes in light transmittance, and enabled testing of crystal stability in a range of aqueous solutions. […] To simulate cumulative drug release over time, all 3 mL supernatant volumes were removed and replaced with completely fresh release media at desired times of 1 hr, 4 hr, 6 hr, 8 hr, 10 hr, 1 day, 2 days, 5 days, 7 days, 10 days and 12 days, and 200 μL aliquots were measured in individual wells of a 96-well plate at 266 nm to determine solubilize sorafenib release, as shown in FIG. 2D.
Release studies were carried out under accelerated conditions in PBS with 0.3% w/v SDS in 1X PBS. […] Drug concentration in samples was measured using a UV-calibrated Tecan infinite M200 PRO. […]

[4] = SD rats; cited from earlier work
4T1 = details: 20-60 mg/kg dosing; cited from earlier work
[5] = tested on: alpha Smooth Muscle actin (aSMact); test: immunofluorescent staining of tumors: aSMact; type: in vivo, BALB/c mice; details: daily bolus IP 25 mg/kg/day
Method: (§1) To confirm the effects seen at the level of RNA, immunofluorescent staining of excised tumor samples that were in parallel fixed with paraformaldehyde and embedded in paraffin was performed. […] Co-localization of CD31 with aSMact was, as expected, not linked in crystal sorafenib-treated tumors, where CD31 reduction was more extensive than with daily, bolus sorafenib.
(§2) Immunofluorescence imaging was used to determine anti-angiogenic drug efficacy. Tumor tissues were retrieved from mice and fixed overnight using 4% paraformaldehyde at 4° C. After fixation, retrieved tissue samples were moved to 70% ethanol. Samples were then processed for paraffin embedding, sectioning and staining. […] Next, tissues were incubated for 1 hour in an immunostaining cocktail solution consisting of NucBlue (Thermo), specific marker probes (1:200 dilution) anti-CD31 (Cat#DIA-310, HistoBioTec) and anti-alphaSmoothMuscle actin-Cy3 (Sigma) in Dako staining buffer. For CD31, a goat anti-rat alexa-fluor647 secondary antibody was also used (1:400). After staining, samples were rinsed again with 1X PBS three times prior to slides being cover slipped with Pro-long anti-fade Gold (Thermo). […] For stain quantification, images were converted into 8-bit image files, a background threshold was determined using NIH ImageJ, and then all images were processed using an NIH ImageJ macro to quantify the area of positive stain. […]

MDA-MB-231 = details: 30 mg/kg bodyweight daily oral, cited from earlier work
tumor endothelial CD31 = test: immunofluorescent staining of tumors: CD31; type: in vivo, BALB/c mice; details: daily bolus IP 25 mg/kg/day
Method: as §1, §2

[6] = tested on: macrophage Cd68 and myeloid Cd11b; test: qPCR of retrieved tumors: immune markers; type: in vivo, BALB/c mice; details: daily IP bolus 25 mg/kg BW/day
4T1 tumors = test: orthotopic parent 4T1 TNBC tumor growth; type: in vivo, BALB/c mice; details: daily IP bolus 25 mg/kg BW/day, dissolved in ~60% DMSO
Method: Namely, 4T1 tumors were treated with either PBS (PBS CONTROL), intraperitoneal (IP) bolus sorafenib (25 mg/kg BW/day) (IP BOLUS), 3 mg IP injected sorafenib crystals (IP CRYSTAL 3 MG), or sorafenib crystals (3 mg: SC CRYSTAL (3 MG); 10 mg: SC CRYSTAL (10 MG)) injected around developed tumors in the subcutaneous (SC) mammary fatpad. Furthermore, to truly test the utility of crystalline sorafenib in treating such an aggressive TNBC model, treatment was carried out retrospectively and only started once tumor volumes reached ˜225-250 mm^3. A positive control liquid-dissolved and daily injected drug treatment group was included, where mice were dosed with a daily bolus of 25 mg sorafenib/kg of mouse BW. […] This may be supported by our prior observation that in the IP compartment, where there is higher 10 liquid turnover as compared to the SC space, crystalline drugs usually have a faster kinetic of release over time.
4T1 or 4T1-luc2 cells were trypsinized using 0.25% Trypsin-EDTA, then diluted with the appropriate complete culture media and spun in a centrifuge at 300 g for 5 min. The supernatant was aspirated, and the pellet was re-suspended in serum-free RPMI 1640. The solution was centrifuged again, and the supernatant aspirated. Re-suspension, centrifugation, and aspiration was repeated once more. 5 mL of RPMI-1640 was then added to the pellet. 10 μL of the cell suspension was removed and mixed with 10 μL of Trypan blue stain 0.4% (ThermoFisher). Cells were counted with a Countess automated cell counter. Cell solutions were centrifuged one more time, the supernatant aspirated, and the pellet resuspended in the amount of RPMI-1640 required to achieve a concentration of 5×10^5 cells/200 μL of media. Tumor cells were then administered orthotopically in naive (and anesthetized) BALB/c mice into the right inguinal mammary fat pad 21 with 200 μL aliquots of the cell suspension, using an insulin syringe. Tumors were measured externally using a digital caliper, and volume was calculated (!″* (length * height) *−length * height). Except in the 4T1-luc2 trial, treatment began once tumors reached an average volume of 220-250 mm3. Experimental end point was deemed when solid tumors reached a volume of no more than 2000 mm3. Tumors were extracted and harvested, half stored in 4% paraformaldehyde diluted from 32% (Cat#50980495, Electron Microscopy Services) with DI H2O, and half frozen in liquid nitrogen, then stored at −80° C.
Once tumors had reached an average volume of ˜220-250 mm^3, mice were administered either subcutaneously or intraperitoneally with 3 or 10 mg of crystalline sorafenib, diameter ˜150-200 μm, suspended in 200 μL of sterile saline using an 18 g needle. […]

[7] = body weight of treated tumor-bearing mice; type: in vivo, BALB/c mice; details: daily 25 mg/kg bolus in ~60% DMSO solvent solution
Method: However, due to the highly hydrophobic nature of sorafenib, its daily 25 mg/kg bolus dosing regimen required regular used of a solvent solution made up of ˜60% of the strong organic solvent dimethylsulfoxide (DMSO). […] In stark contrast, no DMSO was required for delivery of sorafenib crystals, for which instead simply utilized ˜100-200 μl of saline to inject into the desired IP or SC tissue sites.
Once tumors had reached an average volume of ˜220-250 mm^3, mice were administered either subcutaneously or intraperitoneally with 3 or 10 mg of crystalline sorafenib, diameter ˜150-200 μm, suspended in 200 μL of sterile saline using an 18 g needle. As a control, mice (n=4) were dosed with sorafenib dissolved at a concentration of 4 mg/mL in a solution of 65% DMSO (remainder DPBS). Mice were dosed either subcutaneously or intraperitoneally with a bolus of 25 mg drug per kg of bodyweight (BW), daily. As a secondary control, mice were dosed with the 65% DMSO/PBS vehicle to monitor changes in body score based on the vehicle alone.

caspase-3/7 = test: Caspase-Glo 3/7 of tumor lysates; type: in vivo, BALB/c mice; details: daily bolus regimen; tumors at end of study
Method: as §1
Caspase activity was determined using the Caspase-Glo 3/7 assay kit and the manufacturer's protocol, with the following modifications. Protein samples (prepared by sonication probe in NP40 lysis buffer (Cat#FNN0021, Thermo)+Halt protease inhibitor cocktail (Cat#78425, Thermo)) were prepared in a 96-well plate following BCA assay (Cat#23225, Pierce/Thermo) protein quantification ([…] in 50 μl) were incubated with 50 μl of reconstituted caspase 3/7 substrate. After a brief shaking, the plate was incubated at room temperature for 1 hr and luciferase activity was determined using a BioTek Synergy 2 plate reader (Biotek; Winooski, VT).

In the case of `COc1ccc(COc2ccc(Cc3cnc(N)nc3N)cc2OC)cc1` [GW2580], the “duration of suppression of foreign body and immune rejection responses” value [1] is given as at least 6 months and the “duration of suppression of foreign body and immune rejection responses” value [2] is given as “over 1.3 years”.

In the case of `CNC(=O)c1cc(Oc2ccc(NC(=O)Nc3ccc(Cl)c(C(F)(F)F)c3)cc2)ccn1` [amorphous (powder) sorafenib, sorafenib], the “release of solubilized sorafenib (cumulative)” value [3] is reported as “fastest release”.

In the case of `CO[C@H]1C[C@@H]2CC[C@@H](C)[C@@](O)(O2)C(=O)C(=O)N2CCCC[C@H]2C(=O)O[C@H]([C@H](C)C[C@@H]2CC[C@@H](O)[C@H](OC)C2)CC(=O)[C@H](C)/C=C(\C)[C@@H](O)[C@@H](OC)C(=O)[C@H](C)C[C@H](C)/C=C/C=C/C=C/1C` [crystalline rapamycin, rapamycin], the “inflammatory activity / biocompatibility” value [4] is given as “no inflammatory activity”.

For `CNC(=O)c1cc(Oc2ccc(NC(=O)Nc3ccc(Cl)c(C(F)(F)F)c3)cc2)ccn1` [sorafenib], the “effects on tumor growth” value (4T1) is given as “negligible effects”, the “recruitment/polarization of CD206+ F4/80+ M2 macrophages” value (4T1) is given as “higher recruitment/polarization” and the “tumor aSMact levels (immunofluorescence)” value [5] is given as “significant reduction”. The tumor reduction (MDA-MB-231; after 9 days) was 42%, the angiogenic inhibition (MDA-MB-231) was “significant angiogenic inhibition” and the “tumor endothelial CD31 levels (immunofluorescence)” value (tumor endothelial CD31) was “significant reduction”. For the same compound, the “Cd68 and Cd11b expression levels (qPCR)” value [6] was “no significant changes”, the tumor volumes (4T1 tumors) was “slight dip in tumor volumes” and the body weight loss [7] was 15-20%. For the same compound, the “apoptotic index (caspase-3/7 levels in tumor lysates)” value (caspase-3/7) was “significantly increased”.
